# Results as given in ChEMBL document CHEMBL3885861, “Open TG-GATES”.
# Species: Rattus norvegicus
# Experiment: Open TG-GATES - Regimen: Single
# Assay type: toxicity, organism-based, Sprague-Dawley
# Set-up: regimen Single, gender Male, age 6 weeks
# Conditions: in vivo, po, 0 mg/kg, route gavage, dose level Control; for APTT / Bas / Eos / Fbg / Hb / Ht / Lym / MCH / MCHC / MCV / Mono / Neu / PT / Plat / RBC / Ret / WBC: tissue Blood; for KIDNEY_L / KIDNEY_R / KIDNEY_TOTAL: tissue Kidney; for LIVER: tissue Liver; for A/G / ALP / ALT / AST / BUN / CRE / Ca / Cl / DBIL / GLC / IP / K / LDH / Na / PL / RALB / TBIL / TC / TG / TP / gamma-GTP: tissue Plasma
smiles,measurement,setting,value
O=C(O)c1ccccc1Nc1ccccc1 [FENAMIC ACID],TERMINAL_BW,3 h,209.2 g
same,APTT,3 h,16.5 s
same,Bas,3 h,0.4%
same,Eos,3 h,1%
same,Fbg,3 h,255.6 mg/dL
same,Hb,3 h,13.1 g/dL
same,Ht,3 h,39.6%
same,Lym,3 h,73.4%
same,MCH,3 h,20.8 pg
same,MCHC,3 h,33%
same,MCV,3 h,63.1 fL
same,Mono,3 h,2%
same,Neu,3 h,22.8%
same,PT,3 h,14 s
same,Plat,3 h,119.2 x10_4/uL
same,RBC,3 h,627.8 x10_4/ul
same,Ret,3 h,8.3%
same,WBC,3 h,95.4 x10_2/uL
same,KIDNEY_L,3 h,0.9 g
same,KIDNEY_R,3 h,0.9 g
same,KIDNEY_TOTAL,3 h,1.8 g
same,LIVER,3 h,8.8 g
same,A/G,3 h,0.9
same,ALP,3 h,1511 IU/L
same,ALT,3 h,33.2 IU/L
same,AST,3 h,75 IU/L
same,BUN,3 h,9.2 mg/dL
same,CRE,3 h,0.2 mg/dL
same,Ca,3 h,10.9 mg/dL
same,Cl,3 h,105.4 meq/L
same,DBIL,3 h,0.008 mg/dL
same,GLC,3 h,185.4 mg/dL
same,IP,3 h,9 mg/dL
same,K,3 h,4.2 meq/L
same,LDH,3 h,75.4 IU/L
same,Na,3 h,144 meq/L
same,PL,3 h,132 mg/dL
same,RALB,3 h,2.5 g/dL
same,TBIL,3 h,0.05 mg/dL
same,TC,3 h,69 mg/dL
same,TG,3 h,77.6 mg/dL
same,TP,3 h,5.4 g/dL
same,gamma-GTP,3 h,1 IU/L
same,TERMINAL_BW,6 h,204.2 g
same,APTT,6 h,18.5 s
same,Bas,6 h,0.4%
same,Eos,6 h,0.8%
same,Fbg,6 h,283.4 mg/dL
same,Hb,6 h,13.2 g/dL
same,Ht,6 h,39.8%
same,Lym,6 h,76.4%
same,MCH,6 h,20.7 pg
same,MCHC,6 h,33.1%
same,MCV,6 h,62.7 fL
same,Mono,6 h,2.8%
same,Neu,6 h,19.6%
same,PT,6 h,13.9 s
same,Plat,6 h,112.2 x10_4/uL
same,RBC,6 h,634.4 x10_4/ul
same,Ret,6 h,8.3%
same,WBC,6 h,84.7 x10_2/uL
same,KIDNEY_L,6 h,0.9 g
same,KIDNEY_R,6 h,0.9 g
same,KIDNEY_TOTAL,6 h,1.8 g
same,LIVER,6 h,8.2 g
same,A/G,6 h,0.9
same,ALP,6 h,1530.8 IU/L
same,ALT,6 h,35 IU/L
same,AST,6 h,77.4 IU/L
same,BUN,6 h,7.8 mg/dL
same,CRE,6 h,0.2 mg/dL
same,Ca,6 h,11.1 mg/dL
same,Cl,6 h,105 meq/L
same,DBIL,6 h,0.004 mg/dL
same,GLC,6 h,157.2 mg/dL
same,IP,6 h,9.1 mg/dL
same,K,6 h,4.1 meq/L
same,LDH,6 h,79.6 IU/L
same,Na,6 h,143 meq/L
same,PL,6 h,136.8 mg/dL
same,RALB,6 h,2.5 g/dL
same,TBIL,6 h,0.054 mg/dL
same,TC,6 h,75.6 mg/dL
same,TG,6 h,56.2 mg/dL
same,TP,6 h,5.4 g/dL
same,gamma-GTP,6 h,1.2 IU/L
same,TERMINAL_BW,9 h,204.4 g
same,APTT,9 h,18.2 s
same,Bas,9 h,0.6%
same,Eos,9 h,1%
same,Fbg,9 h,261.6 mg/dL
same,Hb,9 h,13.3 g/dL
same,Ht,9 h,40.4%
same,Lym,9 h,75.4%
same,MCH,9 h,20.5 pg
same,MCHC,9 h,33.1%
same,MCV,9 h,62.1 fL
same,Mono,9 h,1.8%
same,Neu,9 h,21.6%
same,PT,9 h,14.3 s
same,Plat,9 h,129.3 x10_4/uL
same,RBC,9 h,650.4 x10_4/ul
same,Ret,9 h,8.1%
same,WBC,9 h,69 x10_2/uL
same,KIDNEY_L,9 h,0.9 g
same,KIDNEY_R,9 h,0.9 g
same,KIDNEY_TOTAL,9 h,1.8 g
same,LIVER,9 h,7.9 g
same,A/G,9 h,0.9
same,ALP,9 h,1501.2 IU/L
same,ALT,9 h,35 IU/L
same,AST,9 h,77.6 IU/L
same,BUN,9 h,9.2 mg/dL
same,CRE,9 h,0.2 mg/dL
same,Ca,9 h,10.8 mg/dL
same,Cl,9 h,106 meq/L
same,DBIL,9 h,0 mg/dL
same,GLC,9 h,182.4 mg/dL
same,IP,9 h,9.6 mg/dL
same,K,9 h,3.9 meq/L
same,LDH,9 h,70 IU/L
same,Na,9 h,145 meq/L
same,PL,9 h,130.6 mg/dL
same,RALB,9 h,2.6 g/dL
same,TBIL,9 h,0.05 mg/dL
same,TC,9 h,72.8 mg/dL
same,TG,9 h,39 mg/dL
same,TP,9 h,5.5 g/dL
same,gamma-GTP,9 h,1.2 IU/L
same,TERMINAL_BW,24 h,218.8 g
same,APTT,24 h,16.2 s
same,Bas,24 h,0.8%
same,Eos,24 h,1%
same,Fbg,24 h,271 mg/dL
same,Hb,24 h,13.5 g/dL
same,Ht,24 h,40.9%
same,Lym,24 h,80.6%
same,MCH,24 h,20.9 pg
same,MCHC,24 h,33%
same,MCV,24 h,63.3 fL
same,Mono,24 h,2%
same,Neu,24 h,15.2%
same,PT,24 h,14.4 s
same,Plat,24 h,124.1 x10_4/uL
same,RBC,24 h,646.8 x10_4/ul
same,Ret,24 h,7%
same,WBC,24 h,111.8 x10_2/uL
same,KIDNEY_L,24 h,1 g
same,KIDNEY_R,24 h,1 g
same,KIDNEY_TOTAL,24 h,1.9 g
same,LIVER,24 h,9.7 g
same,A/G,24 h,0.9
same,ALP,24 h,1870.8 IU/L
same,ALT,24 h,44.4 IU/L
same,AST,24 h,73.8 IU/L
same,BUN,24 h,13.4 mg/dL
same,CRE,24 h,0.2 mg/dL
same,Ca,24 h,11.2 mg/dL
same,Cl,24 h,105.2 meq/L
same,DBIL,24 h,0.008 mg/dL
same,GLC,24 h,177.2 mg/dL
same,IP,24 h,7.8 mg/dL
same,K,24 h,4.2 meq/L
same,LDH,24 h,85.4 IU/L
same,Na,24 h,142.6 meq/L
same,PL,24 h,148.4 mg/dL
